# Measured values from PubChem BioAssay (NCI).
#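 Five compound concentrations were applied to cells in 96-well plates for 48 hours; endpoints were derived by simple linear interpolation of the resulting dose-response curve. TGI is the concentration that stops growth completely.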
# What was measured:
# Assay in all cases: NCI anticancer screen, dose series, 48 h
# [1] = system: 786-0 renal
# [2] = system: A498 renal
# [3] = system: A549 NSCLC
# [4] = system: ACHN renal
# [5] = system: CAKI-1 renal
# [6] = system: CCRF-CEM leukemia
# [7] = system: COLO 205 colon
# [8] = system: DLD-1 colon
# [9] = system: DMS 114 small cell lung
# [10] = system: DMS 273 small cell lung
# [11] = system: EKVX NSCLC
# [12] = system: HCC-2998 colon
# [13] = system: HCT-116 colon
# [14] = system: HCT-15 colon
# [15] = system: HL-60(TB) leukemia
# [16] = system: HOP-18 NSCLC
# [17] = system: HOP-62 NSCLC
# [18] = system: HT29 colon
# [19] = system: IGROV1 ovarian
# [20] = system: K-562 leukemia
# [21] = system: KM12 colon
# [22] = system: KM20L2 colon
# [23] = system: LOX IMVI melanoma
# [24] = system: LXFL 529 NSCLC
# [25] = system: M14 melanoma
# [26] = system: M19-MEL melanoma
# [27] = system: MALME-3M melanoma
# [28] = system: MOLT-4 leukemia
# [29] = system: NCI-H226 lung
# [30] = system: NCI-H23 lung
# [31] = system: NCI-H460 lung
# [32] = system: NCI-H522 lung
# [33] = system: OVCAR-3 ovarian
# [34] = system: OVCAR-4 ovarian
# [35] = system: OVCAR-5 ovarian
# [36] = system: OVCAR-8 ovarian
# [37] = system: RPMI-8226 leukemia
# [38] = system: RXF 393 renal
# [39] = system: SF-268 CNS
# [40] = system: SF-295 CNS
# [41] = system: SF-539 CNS
# [42] = system: SK-MEL-2 melanoma
# [43] = system: SK-MEL-28 melanoma
# [44] = system: SK-MEL-5 melanoma
# [45] = system: SK-OV-3 ovarian
# [46] = system: SN12C renal
# [47] = system: SNB-19 CNS
# [48] = system: SNB-75 CNS
# [49] = system: SNB-78 CNS
# [50] = system: SR leukemia
# [51] = system: SW-620 colon
# [52] = system: TK-10 renal
# [53] = system: U251 CNS
# [54] = system: UACC-257 melanoma
# [55] = system: UACC-62 melanoma
# [56] = system: UO-31 renal
# [57] = system: XF 498 CNS
# [58] = system: RXF-631 renal
smiles,measurement,setting,value
Cc1c(C(=O)Nc2ccc(Cl)c(C(F)(F)F)c2)oc2cc(O)ccc2/c1=N\NC(N)=S,TGI,[1],> 100 µM
same,TGI,[2],> 100 µM
same,TGI,[3],> 100 µM
same,TGI,[4],> 100 µM
same,TGI,[5],> 100 µM
same,TGI,[6],> 100 µM
same,TGI,[7],> 100 µM
same,TGI,[8],> 100 µM
same,TGI,[9],> 100 µM
same,TGI,[10],> 100 µM
same,TGI,[11],> 100 µM
same,TGI,[12],> 100 µM
same,TGI,[13],> 100 µM
same,TGI,[14],> 100 µM
same,TGI,[15],> 100 µM
same,TGI,[16],> 100 µM
same,TGI,[17],> 100 µM
same,TGI,[18],> 100 µM
same,TGI,[19],> 100 µM
same,TGI,[20],> 100 µM
same,TGI,[21],> 100 µM
same,TGI,[22],> 100 µM
same,TGI,[23],> 100 µM
same,TGI,[24],> 100 µM
same,TGI,[25],> 100 µM
same,TGI,[26],> 100 µM
same,TGI,[27],> 100 µM
same,TGI,[28],> 100 µM
same,TGI,[29],> 100 µM
same,TGI,[30],> 100 µM
same,TGI,[31],> 100 µM
same,TGI,[32],> 100 µM
same,TGI,[33],> 100 µM
same,TGI,[34],> 100 µM
same,TGI,[35],> 100 µM
same,TGI,[36],> 100 µM
same,TGI,[37],> 100 µM
same,TGI,[38],> 100 µM
same,TGI,[39],> 100 µM
same,TGI,[40],> 100 µM
same,TGI,[41],> 100 µM
same,TGI,[42],> 100 µM
same,TGI,[43],> 100 µM
same,TGI,[44],> 100 µM
same,TGI,[45],> 100 µM
same,TGI,[46],> 100 µM
same,TGI,[47],> 100 µM
same,TGI,[48],> 100 µM
same,TGI,[49],> 100 µM
same,TGI,[50],> 100 µM
same,TGI,[51],> 100 µM
same,TGI,[52],> 100 µM
same,TGI,[53],> 100 µM
same,TGI,[54],> 100 µM
same,TGI,[55],> 100 µM
same,TGI,[56],> 100 µM
same,TGI,[57],> 100 µM
CC(C)(C)c1cc(N=NC(=S)NCc2ccccc2)cc(C(C)(C)C)c1O,TGI,[1],> 100 µM
same,TGI,[2],> 100 µM
same,TGI,[3],> 100 µM
same,TGI,[4],> 100 µM
same,TGI,[6],> 100 µM
same,TGI,[7],> 100 µM
same,TGI,[8],> 100 µM
same,TGI,[9],> 100 µM
same,TGI,[10],> 100 µM
same,TGI,[11],> 100 µM
same,TGI,[12],> 100 µM
same,TGI,[13],> 100 µM
same,TGI,[14],> 100 µM
same,TGI,[15],> 100 µM
same,TGI,[17],> 100 µM
same,TGI,[18],> 100 µM
same,TGI,[19],> 100 µM
same,TGI,[20],> 100 µM
same,TGI,[22],> 100 µM
same,TGI,[23],> 100 µM
same,TGI,[24],> 100 µM
same,TGI,[25],> 100 µM
same,TGI,[26],> 100 µM
same,TGI,[27],> 100 µM
same,TGI,[28],> 100 µM
same,TGI,[29],> 100 µM
same,TGI,[30],> 100 µM
same,TGI,[31],> 100 µM
same,TGI,[33],> 100 µM
same,TGI,[34],> 100 µM
same,TGI,[36],> 100 µM
same,TGI,[37],> 100 µM
same,TGI,[38],> 100 µM
same,TGI,[58],> 100 µM
same,TGI,[39],> 100 µM
same,TGI,[40],> 100 µM
same,TGI,[41],> 100 µM
same,TGI,[42],> 100 µM
same,TGI,[43],> 100 µM
same,TGI,[44],> 100 µM
same,TGI,[46],> 100 µM
same,TGI,[47],> 100 µM
same,TGI,[48],99.6 µM
same,TGI,[50],> 100 µM
same,TGI,[51],> 100 µM
same,TGI,[52],> 100 µM
same,TGI,[53],> 100 µM
same,TGI,[54],> 100 µM
same,TGI,[55],> 100 µM
same,TGI,[56],> 100 µM
same,TGI,[57],> 100 µM
